Laboratory results reported in ChEMBL document CHEMBL4411327, “Discovery of pyrimidine nucleoside dual prodrugs and pyrazine nucleosides as novel anti-HCV agents” (Bioorg Med Chem, 2019).

Legend:
[1] = Cytotoxicity against human HuH7 cells infected with HCV genotype 1b replicon after 72 hrs by CellTiter-Fluor reagent based fluorescence assay; format: cell-based, Huh-7
Hepatitis C virus [2] = test: Antiviral activity against HCV genotype 1b replicon infected in human HuH7 cells after 72 hrs by bright-glo luciferase reporter gene assay; format: functional, organism-based, Hepacivirus hominis; details: subtype 1b, Huh-7, 72 h
Hepatitis C virus [3] = test: Antiviral activity against HCV genotype 1b replicon infected in human HuH7 cells at 10 uM after 72 hrs by bright-glo luciferase reporter gene assay relative to control; format: functional, Hepacivirus hominis; details: subtype 1b, Huh-7, 72 h
Hepatitis C virus [4] = test: Antiviral activity against HCV genotype 1b replicon infected in human HuH7 cells at 20 uM after 72 hrs by bright-glo luciferase reporter gene assay relative to control; format: functional, Hepacivirus hominis; details: subtype 1b, Huh-7, 72 h
Hepatitis C virus [5] = test: Antiviral activity against HCV genotype 1b replicon infected in human HuH7 cells at 100 uM after 72 hrs by bright-glo luciferase reporter gene assay relative to control; format: functional, Hepacivirus hominis; details: subtype 1b, Huh-7, 72 h
[6] = Stability in human plasma assessed as parent compound remaining at 40 uM measured after 0.5 hrs by LC-MS/MS analysis; format: ADME, cell-free; details: read-out: Stability
[7] = Half life in human plasma at 40 uM by LC-MS/MS analysis; format: ADME, cell-free
[8] = Stability in human plasma assessed as parent compound remaining at 40 uM measured immediately by LC-MS/MS analysis; format: ADME, cell-free; details: read-out: Stability
[9] = Stability in human plasma assessed as parent compound remaining at 40 uM measured after 2 hrs by LC-MS/MS analysis; format: ADME, cell-free; details: read-out: Stability
[10] = Stability in human liver microsomes assessed as parent compound remaining at 0.1 uM preincubated with MgCl2 for 10 mins followed by NADPH addition measured after 60 mins by LC-MS/MS analysis; format: ADME, Microsome; details: read-out: Stability
[11] = Stability in human liver microsomes assessed as parent compound remaining at 0.1 uM preincubated with MgCl2 for 10 mins followed by NADPH addition measured immediately by LC-MS/MS analysis; format: ADME, Microsome; details: read-out: Stability
[12] = Stability in human liver microsomes assessed as parent compound remaining at 0.1 uM preincubated with MgCl2 for 10 mins followed by NADPH addition measured after 17 mins by LC-MS/MS analysis; format: ADME, Microsome
[13] = Metabolic bioavailability in human liver microsomes at 0.1 uM preincubated with MgCl2 for 10 mins followed by NADPH addition measured within 60 mins by LC-MS/MS analysis; format: ADME, Microsome
[14] = Half life in human liver microsomes at 0.1 uM preincubated with MgCl2 for 10 mins followed by NADPH addition by LC-MS/MS analysis; format: ADME, Microsome
[15] = Stability in human plasma assessed as parent compound remaining at 40 uM measured after 5 hrs by LC-MS/MS analysis; format: ADME, cell-free; details: read-out: Stability
[16] = Stability in human plasma assessed as parent compound remaining at 40 uM measured after 1 hr by LC-MS/MS analysis; format: ADME, cell-free; details: read-out: Stability
[17] = Stability in human liver microsomes assessed as parent compound remaining at 0.1 uM preincubated with MgCl2 for 10 mins followed by NADPH addition measured after 7 mins by LC-MS/MS analysis; format: ADME, Microsome; details: read-out: Stability
[18] = Stability in human liver microsomes assessed as parent compound remaining at 0.1 uM preincubated with MgCl2 for 10 mins followed by NADPH addition measured after 30 mins by LC-MS/MS analysis; format: ADME, Microsome
[19] = liver microsomes, read-out: Stability

| SMILES | CC50 at 72 h [1] | EC50 (Hepatitis C virus [2]) | also measured |
| --- | --- | --- | --- |
| CCNc1nccn([C@@H]2O[C@](C)(CO)[C@@H](O)[C@H]2O)c1=O | > 100 µM | > 100 µM |  |
| CCNc1nccn([C@@H]2O[C@H](CO)[C@@H](O)[C@@]2(C)O)c1=O | > 100 µM | > 100 µM |  |
| CCOC(=O)OC(C)n1c(=O)ccn([C@@H]2O[C@H](CO[P@@](=O)(N[C@@H](C)C(=O)OC(C)C)Oc3ccccc3)[C@@H](O)[C@@]2(C)F)c1=O (stereo not given in full) | > 10 µM | 0.22 µM | inhibition at 10 µM (Hepatitis C virus [3]): 99.6% |
| CCOC(=O)OCn1c(=O)ccn([C@@H]2O[C@H](CO[P@@](=O)(N[C@@H](C)C(=O)OC(C)C)Oc3ccccc3)[C@@H](O)[C@@]2(C)F)c1=O | > 10 µM | 0.21 µM | inhibition at 10 µM (Hepatitis C virus [3]): 99.3% |
| CC(C)OC(=O)[C@H](C)N[P@](=O)(OC[C@H]1O[C@@H](n2ccc(=O)n(C(=O)OCc3ccccc3)c2=O)[C@](C)(F)[C@@H]1O)Oc1ccccc1 | > 10 µM | 0.5 µM | inhibition at 10 µM (Hepatitis C virus [3]): 99.3% |
| C=CCNc1ccn([C@@H]2O[C@H](CO[P@@](=O)(N[C@@H](C)C(=O)OC(C)C)Oc3ccccc3)[C@@H](O)[C@@]2(C)F)c(=O)n1 | > 20 µM | > 20 µM | inhibition at 20 µM (Hepatitis C virus [4]): 0% |
| C[C@@]1(O)[C@H](O)[C@@H](CO)O[C@H]1n1ccnc(N)c1=O | > 100 µM |  | inhibition at 100 µM (Hepatitis C virus [5]): 22.3% |
| CC(C)=CCOc1ccn([C@@H]2O[C@H](CO[P@@](=O)(N[C@@H](C)C(=O)OC(C)C)Oc3ccccc3)[C@@H](O)[C@@]2(C)F)c(=O)n1 | > 20 µM | 0.2 µM | inhibition at 20 µM (Hepatitis C virus [4]): 99.9% |
| C[C@]1(CO)O[C@@H](n2ccnc(C(N)=O)c2=O)[C@H](O)[C@@H]1O | > 100 µM | > 100 µM |  |
| CC(C)OC(=O)[C@H](C)N[P@](=O)(OC[C@H]1O[C@@H](n2ccc(Oc3ccccc3)nc2=O)[C@](C)(F)[C@@H]1O)Oc1ccccc1 | > 20 µM | > 20 µM | inhibition at 20 µM (Hepatitis C virus [4]): 0% |
| CC(C)OC(=O)[C@H](C)N[P@](=O)(OC[C@H]1O[C@@H](n2ccnc(N)c2=O)[C@](C)(O)[C@@H]1O)Oc1ccccc1 | 59.6 µM | 24.4 µM | inhibition at 100 µM (Hepatitis C virus [5]): 99.8% |
| CC(C)COC(=O)n1c(=O)ccn([C@@H]2O[C@H](CO[P@@](=O)(N[C@@H](C)C(=O)OC(C)C)Oc3ccccc3)[C@@H](O)[C@@]2(C)F)c1=O | > 10 µM | 0.4 µM | remaining at 0.5 h, 40 µM [6]: 87.3%; half-life at 40 µM [7]: 18 min; remaining at 0 h, 40 µM [8]: 100%; remaining at 2 h, 40 µM [9]: 17.2%; remaining at 1 h, 0.1 µM [10]: 0%; remaining at 0 min, 0.1 µM [11]: 100%; remaining at 17 min, 0.1 µM [12, 19]: 0%; Fh at 1 h, 0.1 µM [13]: 1.33%; half-life at 0.1 µM ([14]; liver microsomes): 1.44 min; remaining at 5 h, 40 µM [15]: 0%; remaining at 1 h, 40 µM [16]: 61%; inhibition at 10 µM (Hepatitis C virus [3]): 99.9%; remaining at 7 min, 0.1 µM [17]: 3.5%; remaining at 0.5 h, 0.1 µM [18, 19]: 0% |
| C[C@@]1(O)[C@H](O)[C@@H](CO)O[C@H]1n1cc(Cl)nc(C(N)=O)c1=O | > 100 µM | 7.3 µM |  |
| C[C@]1(CO)O[C@@H](n2ccnc(N)c2=O)[C@H](O)[C@@H]1O | > 100 µM | > 100 µM |  |
| CC(C)OC(=O)[C@H](C)N[P@](=O)(OC[C@H]1O[C@@H](n2ccc(=O)n(C(C)OC(=O)OC3CCCCC3)c2=O)[C@](C)(F)[C@@H]1O)Oc1ccccc1 (stereo not given in full) | > 10 µM | 0.5 µM | inhibition at 10 µM (Hepatitis C virus [3]): 99.9% |
| CC(C)OC(=O)[C@H](C)N[P@](=O)(OC[C@H]1O[C@@H](n2cc(C(N)=O)ncc2=O)[C@](C)(O)[C@@H]1O)Oc1ccccc1 | > 100 µM | > 100 µM |  |

| SMILES | CC50 at 72 h [1] | EC50 (Hepatitis C virus [2]) | also measured |
| --- | --- | --- | --- |
| CC(C)OC(=O)[C@@H](C)N[P@@](=O)(OC[C@H]1O[C@@H](n2ccnc(N)c2=O)[C@](C)(O)[C@@H]1O)Oc1ccccc1 | > 100 µM | > 100 µM |  |
| CC(C)OC(=O)OC(C)n1c(=O)ccn([C@@H]2O[C@H](CO[P@@](=O)(N[C@@H](C)C(=O)OC(C)C)Oc3ccccc3)[C@@H](O)[C@@]2(C)F)c1=O (stereo not given in full) | > 10 µM | 0.22 µM | remaining at 0.5 h, 40 µM [6]: 92.8%; half-life at 40 µM [7]: 984 min; remaining at 0 h, 40 µM [8]: 100%; remaining at 2 h, 40 µM [9]: 85.3%; remaining at 1 h, 0.1 µM [10]: 0%; remaining at 0 min, 0.1 µM [11]: 100%; Stability ([12]; microsomes, 17 min, 0.1 µM): 12.8%; Fh at 1 h, 0.1 µM [13]: 11.2%; t1/2 ([14]; microsomes, 0.1 µM): 13.5 min; remaining at 5 h, 40 µM [15]: 78.9%; remaining at 1 h, 40 µM [16]: 90%; inhibition at 10 µM (Hepatitis C virus [3]): 99.8%; remaining at 7 min, 0.1 µM [17]: 51.2%; Stability ([18]; microsomes, 0.5 h, 0.1 µM): 2.1% |
| CC(C)OC(=O)[C@H](C)N[P@](=O)(OC[C@H]1O[C@@H](n2ccc(OCc3ccccc3)nc2=O)[C@](C)(F)[C@@H]1O)Oc1ccccc1 | > 20 µM | > 20 µM | inhibition at 20 µM (Hepatitis C virus [4]): 0% |
| C=CCOc1ccn([C@@H]2O[C@H](CO[P@@](=O)(N[C@@H](C)C(=O)OC(C)C)Oc3ccccc3)[C@@H](O)[C@@]2(C)F)c(=O)n1 | > 20 µM | > 20 µM | inhibition at 20 µM (Hepatitis C virus [4]): 0% |
| CCNc1nccn([C@@H]2O[C@H](CO[P@@](=O)(N[C@@H](C)C(=O)OC(C)C)Oc3ccccc3)[C@@H](O)[C@@]2(C)O)c1=O | > 100 µM | > 100 µM |  |
| C#CCOc1ccn([C@@H]2O[C@H](CO[P@@](=O)(N[C@@H](C)C(=O)OC(C)C)Oc3ccccc3)[C@@H](O)[C@@]2(C)F)c(=O)n1 | > 20 µM | 12.2 µM | inhibition at 20 µM (Hepatitis C virus [4]): 46.9% |
| CC(C)OC(=O)[C@H](C)N[P@](=O)(OC[C@@]1(C)O[C@@H](n2ccnc(N)c2=O)[C@H](O)[C@@H]1O)Oc1ccccc1 | > 100 µM | 19.5 µM | inhibition at 100 µM (Hepatitis C virus [5]): 85.1% |
| CC=CCOc1ccn([C@@H]2O[C@H](CO[P@@](=O)(N[C@@H](C)C(=O)OC(C)C)Oc3ccccc3)[C@@H](O)[C@@]2(C)F)c(=O)n1 (mixture of isomers) | > 100 µM | 30.3 µM | inhibition at 100 µM (Hepatitis C virus [5]): 66.3% |
| CCOC(=O)n1c(=O)ccn([C@@H]2O[C@H](CO[P@@](=O)(N[C@@H](C)C(=O)OC(C)C)Oc3ccccc3)[C@@H](O)[C@@]2(C)F)c1=O | > 10 µM | 0.65 µM | inhibition at 10 µM (Hepatitis C virus [3]): 100% |
| CCNc1nccn([C@@H]2O[C@](C)(CO[P@@](=O)(N[C@@H](C)C(=O)OC(C)C)Oc3ccccc3)[C@@H](O)[C@H]2O)c1=O | > 100 µM | > 100 µM |  |
| C[C@@]1(O)[C@H](O)[C@@H](CO)O[C@H]1n1cc(Br)ncc1=O | > 100 µM | > 100 µM |  |
| CC(C)OC(=O)[C@H](C)N[P@](=O)(OC[C@H]1O[C@@H](n2ccc(OC3CC3)nc2=O)[C@](C)(F)[C@@H]1O)Oc1ccccc1 | > 20 µM | > 20 µM | inhibition at 20 µM (Hepatitis C virus [4]): 0% |
| C[C@@]1(O)[C@H](O)[C@@H](CO)O[C@H]1n1cc(C(N)=O)ncc1=O | > 100 µM | > 100 µM |  |
| COc1ccn([C@@H]2O[C@H](CO[P@@](=O)(N[C@@H](C)C(=O)OC(C)C)Oc3ccccc3)[C@@H](O)[C@@]2(C)F)c(=O)n1 | > 20 µM | > 20 µM | inhibition at 20 µM (Hepatitis C virus [4]): 0% |
| CC(C)OC(=O)[C@H](C)N[P@](=O)(OC[C@H]1O[C@@H](n2ccc(=O)[nH]c2=O)[C@](C)(F)[C@@H]1O)Oc1ccccc1 [SOFOSBUVIR] | > 20 µM | 0.18 µM | inhibition at 20 µM (Hepatitis C virus [4]): 99.9% |
| CCCCCOC(=O)n1c(=O)ccn([C@@H]2O[C@H](CO[P@@](=O)(N[C@@H](C)C(=O)OC(C)C)Oc3ccccc3)[C@@H](O)[C@@]2(C)F)c1=O | > 10 µM | 0.7 µM | inhibition at 10 µM (Hepatitis C virus [3]): 99.9% |
